Source: patent publication US20210330611A1, “THERAPY FOR NEUROLOGICAL DISEASES/DISORDERS” (priority 2020, published 2021)
Structures can show the parent of a compound that is named as a salt. Where two headings read alike, the source gives them in different places.

Assays:
[1] = tested on: fibrin-induced microglia activation; assay: Image-based assay of fibrin-induced microglia activation (HTS and dose response); assay type: cell-based, rat; conditions: for inhibition at 10 µM: Rattus norvegicus, Microglia, read-out: Fibrin % inhibition
[2] = tested on: primary rat microglia; assay: Cell toxicity (dead cells, size <150 μm2) in LPS assay; conditions: for IC50: read-out: Cell Toxicity IC50 (uM) [LPS assay]
[3] = tested on: LPS-induced microglia activation; assay: Image-based assay of LPS-induced microglia activation (HTS and dose response); assay type: cell-based, rat; conditions: for inhibition at 10 µM: Rattus norvegicus, Microglia, read-out: LPS % inhibition
[4] = tested on: primary rat microglia; assay: Cell toxicity (dead cells, size <150 μm2) in coated fibrin (cFib) assay; conditions: for IC50: read-out: Cell Toxicity IC50 (uM) [cFib assay];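 as to Fibrin % cell toxicity: share of dead cells sized under 150 µm2 at 10 µM in fibrin-stimulated microglia HTS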
[5] = tested on: fibrin- and LPS-induced microglia activation; assay: cells; assay type: cell-based, rat; conditions: for Hit: HTS hit classification
[6] = primary microglia HTS, 10 μM, fibrin-stimulated, cell size >800 μm^2 as marker of activation
[7] = primary microglia HTS, 10 μM, LPS assay, cell size <150 μm^2 as marker of toxicity
[8] = primary microglia HTS, 10 μM, LPS-stimulated, cell size >800 μm^2 as marker of activation
[9] = primary microglia HTS, 10 μM, fibrin assay, cell size <150 μm^2 as marker of toxicity
[10] = HTS of 1907 compounds, quadrant by fibrin and LPS inhibition
[11] = primary HTS, 10 μM, fibrin-stimulated primary microglia
[12] = primary HTS, 10 μM, LPS assay, dead cells size <150 μm2
[13] = primary HTS, 10 μM, LPS-stimulated primary microglia
[14] = primary HTS, 10 μM, fibrin assay, dead cells size <150 μm2
[15] = Table 1, dose response 0.001-20 μM, triplicates, primary rat microglia, 48 h, read-out: Fibrin IC50
[16] = dose response, fibrin-induced microglia activation, read-out: Fibrin IC50
[17] = fibrin-induced microglia activation, dose response, read-out: Fibrin IC50 (uM) (Suppl. Table 7)
[18] = primary microglia HTS, fibrin stimulation, increased cell size (>800 μm^2) as marker of activation
[19] = primary microglia HTS, LPS stimulation, decreased size (<150 μm^2) as marker of toxicity
[20] = LPS-induced microglia activation, dose response, read-out: LPS IC50 (uM) (Suppl. Table 7)
[21] = Table 1, dose response 0.001-20 μM, triplicates, primary rat microglia, 48 h, read-out: LPS IC50
[22] = dose response, LPS-induced microglia activation, read-out: LPS IC50
[23] = primary microglia HTS, LPS stimulation, increased cell size (>800 μm^2) as marker of activation
[24] = primary microglia HTS, fibrin stimulation, decreased size (<150 μm^2) as marker of toxicity
[25] = hit classification in microglia HTS
[26] = quadrant by fibrin and LPS inhibition in HTS of 1907 compounds
[27] = Table 3, read-out: Fibrin IC50 (uM) (Suppl. Table 7)
[28] = Table 3, read-out: LPS IC50 (uM) (Suppl. Table 7)

Cc1cc(C(C)(C)C)cc(C)c1CC1=NCCN1 [Xylometazoline]
inhibition at 10 µM [1, 6]: -5%
LPS % cell toxicity [2, 7]: 1%
inhibition at 10 µM [3, 8]: 19%
Fibrin % cell toxicity [4, 9]: 0%
Quadrant (FIG. 5b) [5, 10]: Q4

COC(=O)[C@@H]1[C@H]2C[C@H]3c4[nH]c5ccccc5c4CCN3C[C@@H]2CC[C@@H]1O [Yohimbine Hydrochloride]
Fibrin % inhibition [1, 6]: −8%
LPS % cell toxicity [2, 7]: 1%
LPS % inhibition [3, 8]: 19%
Fibrin % cell toxicity [4, 9]: 1%
Quadrant (FIG. 5b) [5, 10]: Q4

COC(=O)[C@@H]1[C@H]2C[C@H]3c4[nH]c5ccccc5c4CCN3C[C@@H]2CC[C@@H]1O [Yohimbine]
Fibrin % inhibition [1, 6]: 4%
LPS % cell toxicity [2, 7]: 0%
LPS % inhibition [3, 8]: −17%
Fibrin % cell toxicity [4, 9]: 1%
Quadrant (FIG. 5b) [5, 10]: Q4

CCN(C(C)=O)c1cccc(-c2ccnc3c(C#N)cnn23)c1 [Zaleplon]
inhibition at 10 µM [1, 6]: 16%
LPS % cell toxicity [2, 7]: 0%
inhibition at 10 µM [3, 8]: 13%
Fibrin % cell toxicity [4, 9]: 1%
Quadrant (FIG. 5b) [5, 10]: Q4

CCCOc1ccccc1-c1nc2nn[nH]c2c(=O)[nH]1 [Zaprinast]
inhibition at 10 µM [1, 6]: -34%
LPS % cell toxicity [2, 7]: 0%
inhibition at 10 µM [3, 8]: 13%
Fibrin % cell toxicity [4, 9]: 1%
Quadrant (FIG. 5b) [5, 10]: Q4

CC(c1cc2ccccc2s1)N(O)C(N)=O (centres unmarked) [Zileuton]
inhibition at 10 µM [1, 6]: -12%
LPS % cell toxicity [2, 7]: 0%
inhibition at 10 µM [3, 8]: 21%
Fibrin % cell toxicity [4, 9]: 0%
Quadrant (FIG. 5b) [5, 10]: Q4

CN(C)CCc1c[nH]c2ccc(C[C@H]3COC(=O)N3)cc12 [Zolmitriptan]
inhibition at 10 µM [1, 6]: 9%
LPS % cell toxicity [2, 7]: 0%
inhibition at 10 µM [3, 8]: 18%
Fibrin % cell toxicity [4, 9]: 1%
Quadrant (FIG. 5b) [5, 10]: Q4

Cc1cc(CC(=O)O)n(C)c1C(=O)c1ccc(Cl)cc1 [Zomepirac]
inhibition at 10 µM [1, 6]: -4%
LPS % cell toxicity [2, 7]: 0%
inhibition at 10 µM [3, 8]: 10%
Fibrin % cell toxicity [4, 9]: 1%
Quadrant (FIG. 5b) [5, 10]: Q4

NS(=O)(=O)Cc1noc2ccccc12 [Zonisamide]
inhibition at 10 µM [1, 6]: -37%
LPS % cell toxicity [2, 7]: 0%
inhibition at 10 µM [3, 8]: -12%
Fibrin % cell toxicity [4, 9]: 0%
Quadrant (FIG. 5b) [5, 10]: Q4

CN1CCN(C(=O)OC2c3nccnc3C(=O)N2c2ccc(Cl)cn2)CC1 (centres unmarked) [Zopiclone]
inhibition at 10 µM [1, 6]: 11%
LPS % cell toxicity [2, 7]: 0%
inhibition at 10 µM [3, 8]: 5%
Fibrin % cell toxicity [4, 9]: 1%
Quadrant (FIG. 5b) [5, 10]: Q4

Candicidin
Fibrin % inhibition [1, 11]: −41%
LPS % cell toxicity [2, 12]: 0%
LPS % inhibition [3, 13]: 31%
Fibrin % cell toxicity [4, 14]: 1%
Quadrant (FIG. 5b) ([5]; primary HTS, 10 μM): Q4

Capreomycin Sulfate
Fibrin % inhibition [1, 11]: −32%
LPS % cell toxicity [2, 12]: 0%
LPS % inhibition [3, 13]: 3%
Fibrin % cell toxicity [4, 14]: 1%
Quadrant (FIG. 5b) ([5]; primary HTS, 10 μM): Q4

Chiniofon
Fibrin % inhibition [1, 11]: −52%
LPS % cell toxicity [2, 12]: 1%
LPS % inhibition [3, 13]: −1%
Fibrin % cell toxicity [4, 14]: 1%
Quadrant (FIG. 5b) ([5]; primary HTS, 10 μM): Q4

Chlorophyllide Cu Complex Na Salt
Fibrin % inhibition [1, 11]: −36%
LPS % cell toxicity [2, 12]: 0%
LPS % inhibition [3, 13]: 9%
Fibrin % cell toxicity [4, 14]: 0%
Quadrant (FIG. 5b) ([5]; primary HTS, 10 μM): Q4

Colistimethate sodium [reference compound]
IC50 [1, 15]: > 20 µM
IC50 [1, 16]: > 20 µM
IC50 [1, 17]: > 20 µM
Fibrin % inhibition [1, 18]: 72%
LPS % cell toxicity [2, 19]: 4%
IC50 ([2]; LPS assay): > 20 µM
IC50 [3, 20]: > 20 µM
IC50 [3, 21]: > 20 µM
IC50 [3, 22]: > 20 µM
LPS % inhibition [3, 23]: 112%
Fibrin % cell toxicity [4, 24]: 1%
IC50 ([4]; cFib assay): > 20 µM
Hit [5]: HIT (Hits were defined as molecules that exhibited greater than 50% inhibition of either fibrin or LPS activation)
Quadrant (FIG. 5b) [5, 10]: Q2
Quadrant (FIG. 5b) ([5]; Table 1, screen at 10 μM): Q2
Cherry-picked Hit (Suppl. Table 7) [5, 25]: HIT (Hits were defined as molecules that exhibited greater than 50% inhibition of either fibrin or LPS activation)
Quadrant (FIG. 5b) [5, 26]: Q2

Colistin Sulfate
Fibrin % inhibition [1, 18]: 19%
LPS % cell toxicity [2, 19]: 1%
LPS % inhibition [3, 23]: 58%
Fibrin % cell toxicity [4, 24]: 1%
Quadrant (FIG. 5b) [5, 26]: Q1

Gentamicin sulfate [reference compound]
Fibrin Selectivity [1]: 5
Fibrin Selectivity (LOG10) [1]: 0.71
IC50 [1, 15]: 4 µM
IC50 [1, 27]: 4 µM
IC50 [1, 16]: 4 µM
IC50 [1, 17]: 4 µM
Fibrin % inhibition [1, 18]: 105%
LPS % cell toxicity [2, 19]: 4%
IC50 ([2]; LPS assay): > 20 µM
IC50 ([2]; Table 3): > 20 µM
IC50 [3, 20]: > 20 µM
IC50 [3, 21]: > 20 µM
IC50 [3, 28]: > 20 µM
IC50 [3, 22]: > 20 µM
LPS % inhibition [3, 23]: 101%
Fibrin % cell toxicity [4, 24]: 1%
IC50 ([4]; Table 3): > 20 µM
IC50 ([4]; cFib assay): > 20 µM
Hit [5]: HIT (Hits were defined as molecules that exhibited greater than 50% inhibition of either fibrin or LPS activation)
Quadrant (FIG. 5b) [5, 10]: Q2
Quadrant (FIG. 5b) ([5]; Table 1, screen at 10 μM): Q2
Cherry-picked Hit (Suppl. Table 7) ([5]; Table 3): HIT (Hits were defined as molecules that exhibited greater than 50% inhibition of either fibrin or LPS activation)
Quadrant (FIG. 5b) ([5]; Table 3, screen at 10 μM): Q2
Cherry-picked Hit (Suppl. Table 7) [5, 25]: HIT (Hits were defined as molecules that exhibited greater than 50% inhibition of either fibrin or LPS activation)
Quadrant (FIG. 5b) [5, 26]: Q2

Gramicidin
Fibrin % inhibition [1, 18]: 114%
LPS % cell toxicity [2, 19]: 64%
LPS % inhibition [3, 23]: 118%
Fibrin % cell toxicity [4, 24]: 43%
Quadrant (FIG. 5b) [5, 26]: Q2

Mepartricin
Fibrin % inhibition [1, 18]: 6%
LPS % cell toxicity [2, 19]: 0%
LPS % inhibition [3, 23]: −1%
Fibrin % cell toxicity [4, 24]: 1%
Quadrant (FIG. 5b) [5, 26]: Q4

Merbromin
Fibrin % inhibition [1, 18]: −6%
LPS % cell toxicity [2, 19]: 0%
LPS % inhibition [3, 23]: 36%
Fibrin % cell toxicity [4, 24]: 0%
Quadrant (FIG. 5b) [5, 26]: Q4

Monensin [reference compound]
Fibrin Selectivity [1]: 49
Fibrin Selectivity (LOG10) [1]: 1.69
fib_HS ([1]; Hill slope of fibrin dose response, Table 7): −3.80
IC50 [1, 15]: 0.004 µM
IC50 [1, 27]: 0.004 µM
IC50 ([1]; Table 6, read-out: Fibrin IC50 (uM) (Suppl. Table 7)): 0.004 µM
fib specificity ([1]; Table 7): 0.2
IC50 ([1]; Table 7, read-out: fib_IC50): 1.14 µM
IC50 [1, 16]: 0.004 µM
Fibrin Selectivity (LOG10) ([1]; fibrin vs LPS, LOG10, Table 6): 1.69
Fibrin Selectivity ([1]; fibrin vs LPS, Table 6): 49
IC50 [1, 17]: 0.004 µM
Fibrin % inhibition [1, 18]: 101%
LPS % cell toxicity [2, 19]: 6%
IC50 ([2]; LPS assay): 2 µM
IC50 ([2]; LPS assay, Table 6): 2 µM
IC50 ([2]; Table 3): 2 µM
LPS_HS ([3]; Hill slope of LPS dose response, Table 7): −0.48
IC50 [3, 20]: 0.2 µM
IC50 [3, 21]: 0.2 µM
IC50 [3, 28]: 0.2 µM
IC50 ([3]; Table 6, read-out: LPS IC50 (uM) (Suppl. Table 7)): 0.2 µM
LPS specificity ([3]; Table 7): 5.4
IC50 ([3]; Table 7, read-out: LPS_IC50): 0.212 µM
IC50 [3, 22]: 0.2 µM
LPS % inhibition [3, 23]: 117%
Fibrin % cell toxicity [4, 24]: 3%
IC50 ([4]; Table 3): > 20 µM
IC50 ([4]; cFib assay): > 20 µM
IC50 ([4]; cFib assay, Table 6): > 20 µM
Hit [5]: HIT (Hits were defined as molecules that exhibited greater than 50% inhibition of either fibrin or LPS activation)
Quadrant (FIG. 5b) [5, 10]: Q2
Quadrant (FIG. 5b) ([5]; Table 1, screen at 10 μM): Q2
Cherry-picked Hit (Suppl. Table 7) ([5]; Table 3): HIT (Hits were defined as molecules that exhibited greater than 50% inhibition of either fibrin or LPS activation)
Quadrant (FIG. 5b) ([5]; Table 3, screen at 10 μM): Q2
Activity ([5]; Table 7, fib = fibrin, LPS, tox = toxicity): fib/LPS
Cherry-picked Hit (Suppl. Table 7) [5, 25]: HIT (Hits were defined as molecules that exhibited greater than 50% inhibition of either fibrin or LPS activation)
Cherry-picked Hit (Suppl. Table 7) ([5]; microglia HTS, Table 6): HIT (Hits were defined as molecules that exhibited greater than 50% inhibition of either fibrin or LPS activation)
Quadrant (FIG. 5b) ([5]; microglia HTS, Table 6): Q2
Quadrant (FIG. 5b) [5, 26]: Q2

Nonoxynol-9
Fibrin % inhibition [1, 18]: −7%
LPS % cell toxicity [2, 19]: 0%
LPS % inhibition [3, 23]: 23%
Fibrin % cell toxicity [4, 24]: 0%
Quadrant (FIG. 5b) [5, 26]: Q4

Polymyxin B Sulfate
Fibrin % inhibition [1, 18]: −25%
LPS % cell toxicity [2, 19]: 2%
LPS % inhibition [3, 23]: 76%
Fibrin % cell toxicity [4, 24]: 1%
Quadrant (FIG. 5b) [5, 26]: Q1
